Experimental data taken from article PMC12775434, “Ultra-large virtual screening unveils potent agonists of the neuromodulatory orphan receptor GPR139” (Nature Communications, 2025).
Where “and” joins values, the source holds several entries; their conditions need not be identical. Equal entries are not always repeated. Where two headings read alike, the source gives them in different places. One block for each compound: values may come before it.

Assays:
GPR139 [1] = target: T1, GPR139 (Homo sapiens, UniProt Q6DWJ6); experiment: Ca2+ mobilization assay, antagonist mode (EC80 800 nM Lundbeck Cmp 1a after 20 min preincubation), GPR139-CHOk1; type: cell-based; settings: individual replicates (Supplementary Figure 4)
T1 sequence (Q6DWJ6 1-353): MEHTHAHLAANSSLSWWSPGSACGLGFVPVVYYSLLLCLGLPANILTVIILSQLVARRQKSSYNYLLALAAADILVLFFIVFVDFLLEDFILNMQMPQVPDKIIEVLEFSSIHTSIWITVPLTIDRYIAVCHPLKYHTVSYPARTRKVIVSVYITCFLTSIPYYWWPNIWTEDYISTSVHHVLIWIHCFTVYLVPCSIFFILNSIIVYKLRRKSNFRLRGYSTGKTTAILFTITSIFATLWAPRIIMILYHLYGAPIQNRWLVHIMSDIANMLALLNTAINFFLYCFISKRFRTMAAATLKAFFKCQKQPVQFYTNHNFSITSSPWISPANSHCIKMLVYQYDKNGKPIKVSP
Outline: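 Antagonist mode: 800 nM (EC80) reference agonist Lundbeck Cmp 1a added following 20 min pre-incubation with 10 µM compound. GPR139-CHOk1 cells, Fluo-4 dye, probenecid-containing HEPES buffer pH 7.4; intracellular Ca2+ measured at 37 °C (ex 485, em 525 nm).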

GPR139 [2] = target: T1, GPR139; experiment: Inositol monophosphate (IP1) accumulation assay, GPR139-CHOk1; type: cell-based; settings: for Emax: normalized to Lundbeck Cmp 1a
Description: Primary screening and pharmacological characterization of compounds were performed using a CHO-K1 cell line that stably expresses human GPR139 (GPR139-CHOk1). The GPR139-CHOk1 cell line was kindly provided by H. Lundbeck A/S, Denmark[24]. GPR139-CHOk1 cells were grown in Ham’s F-12 Kaighn’s Modification Medium (ThermoFisher #21127030) supplemented with 10% dialyzed fetal bovine serum (US origin, ThermoFisher #26400044), 100 units/mL Penicillin-Streptomycin (ThermoFisher #15140122), and 1 mg/mL Geneticin (ThermoFisher #11811031). […] M1R-CHOk1 cells were purchased from The Missouri S&T cDNA Resource Center (#CEM100TN00). M1R-CHOk1 cells were grown in Ham’s F12 Medium (ThermoFisher #21765029) supplemented with 10% fetal bovine serum (Brazilian origin, ThermoFisher #10270106), 100 units/mL Penicillin-Streptomycin, and 0.25 mg/mL Geneticin. HEK293A cells transiently transfected with GPR139 were used for additional pharmacological assessment of signaling pathways activated by GPR139. HEK239A cells were generously provided by Dr. Asuka Inoue, Tohoku University, Japan. HEK293A cells were grown in Dulbecco’s Modified Eagle Medium (ThermoFisher #31966047) supplemented with 10% dialyzed fetal bovine serum and 100 units/mL Penicillin-Streptomycin. Cell lines were maintained at 37 °C in humidified incubator equilibrated with 5% CO2.
HTRF IP-One Gq kit (Cisbio #62IPAPEC) was used to detect the accumulation of inositol monophosphate (IP1) as described in the work by Shehata et al.[26]. GPR139-CHOk1 cells were dissociated and resuspended in HEPES buffer. 50,000 cells in 5 µL and 5 µL test compounds diluted from DMSO stocks (final DMSO concentration of maximally 0.3%) in HEPES buffer supplemented with 40 mM LiCl were mixed in each well of white 384-well OptiPlate (PerkinElmer #6007290). The cells were incubated for 1 h at 37 °C. Then, 10 µL detection reagent composed of 2.5% Eu3 + -anti-IP1 antibody and 2.5% IP1-d2 diluted in lysis buffer was added, and the cells were incubated for 1 h at room temperature before measurements. Measurements were performed on EnVision Multimode Plate Reader (PerkinElmer) using excitation light of 340 nm and emission light of 615 nm and 665 nm. The time resolved-fluorescence resonance energy transfer (TR-FRET) 665 nm/615 nm ratio, which is inversely proportional to the IP1 accumulation, was used to determine the IP1 response.
Pharmacological data and statistical analyses were performed in GraphPad Prism v9–10 (Graphpad Software Inc., San Diego, CA), which are also specifically described in the figure and table legends. The functional assay responses were normalized to buffer (0%) and Lundbeck Cmp 1a or JNJ-63533054 (100%), for Ca^2+ and IP1 experiments in the GPR139-CHOk1 stable cell line or Ca^2+, G protein activation, and arrestin-3 recruitment experiments in the HEK293A cells transiently transfected with GPR139, respectively. Data are from at least three independent experiments, unless stated otherwise. Concentration-response curves were fitted applying non-linear regression using the log (agonist) versus response model with variable slope. ANOVA was applied for comparing results and determining statistical significance. Comparison of responses to the reference was performed using one-way ANOVA with Dunnett’s multiple comparisons test at significance threshold of p < 0.05. Comparison of responses across assays and ligands was performed using two-way ANOVA with Tukey’s multiple comparisons test at a significance threshold of p < 0.05.

[3] = Supplementary Table 2, mean ± SEM, read-out: pEC50 IP1 (converted)
[4] = Supplementary Table 2, read-out: Emax (%) IP1
[5] = log [compound] M -4.5, individual replicates
[6] = log [compound] M -5.0, individual replicates
[7] = log [compound] M -5.5, individual replicates
[8] = log [compound] M -6.0, individual replicates
[9] = log [compound] M -6.5, individual replicates
[10] = log [compound] M -7.0, individual replicates
[11] = log [compound] M -7.5, individual replicates
[12] = log [compound] M -8.0, individual replicates

EC50 (GPR139 [2]; [3]): 501 nM
Emax (GPR139 [2]; [4]): 100 ± 9%
Structure (SMILES): COc1ccccc1-c1nc(CC(=O)NC(C)c2ccccc2)no1 (centres unmarked) [Compound 1.2, COC1=C(C2=NC(CC(NC(C3=CC=CC=C3)C)=O)=NO2)C=CC=C1]
Ca2+ signal (% of Cmp 1a) (GPR139 [1]): 2 % of Cmp 1a and 4 % of Cmp 1a and 3.33 % of Cmp 1a
IP1 response (% of Cmp 1a) (GPR139 [2]; [5]): 124 % of Cmp 1a and 88 % of Cmp 1a and 75 % of Cmp 1a and 93 % of Cmp 1a
IP1 response (% of Cmp 1a) (GPR139 [2]; [6]): 116 % of Cmp 1a and 87 % of Cmp 1a and 73 % of Cmp 1a and 117 % of Cmp 1a
IP1 response (% of Cmp 1a) (GPR139 [2]; [7]): 100 % of Cmp 1a and 64 % of Cmp 1a and 57 % of Cmp 1a and 96 % of Cmp 1a
IP1 response (% of Cmp 1a) (GPR139 [2]; [8]): 93 % of Cmp 1a and 47 % of Cmp 1a (2×) and 64 % of Cmp 1a
IP1 response (% of Cmp 1a) (GPR139 [2]; [9]): 57 % of Cmp 1a and 45 % of Cmp 1a and 31 % of Cmp 1a and 51 % of Cmp 1a
IP1 response (% of Cmp 1a) (GPR139 [2]; [10]): 15 % of Cmp 1a and 18 % of Cmp 1a and 6 % of Cmp 1a and 14 % of Cmp 1a
IP1 response (% of Cmp 1a) (GPR139 [2]; [11]): 15 % of Cmp 1a and 11 % of Cmp 1a and -2 % of Cmp 1a and 7.38 % of Cmp 1a
IP1 response (% of Cmp 1a) (GPR139 [2]; [12]): 2 % of Cmp 1a and -5.58 % of Cmp 1a and -11 % of Cmp 1a and 6.5 % of Cmp 1a

EC50 (GPR139 [2]; [3]): 501 nM
Emax (GPR139 [2]; [4]): 102 ± 15%
Structure (SMILES): Cc1nocc1-c1nc(CC(=O)NC(C)c2ccccc2)no1 (centres unmarked) [Compound 1.5, CC(C1=CC=CC=C1)NC(CC2=NOC(C3=CON=C3C)=N2)=O]
Ca2+ signal (% of Cmp 1a) (GPR139 [1]): 3.33 % of Cmp 1a and -5.33 % of Cmp 1a and -2.33 % of Cmp 1a
IP1 response (% of Cmp 1a) (GPR139 [2]; [5]): 120 % of Cmp 1a and 99 % of Cmp 1a and 50 % of Cmp 1a and 106 % of Cmp 1a
IP1 response (% of Cmp 1a) (GPR139 [2]; [6]): 127 % of Cmp 1a and 79 % of Cmp 1a and 71 % of Cmp 1a and 109 % of Cmp 1a
IP1 response (% of Cmp 1a) (GPR139 [2]; [7]): 103 % of Cmp 1a and 63 % of Cmp 1a and 65 % of Cmp 1a and 87 % of Cmp 1a
IP1 response (% of Cmp 1a) (GPR139 [2]; [8]): 75 % of Cmp 1a and 61 % of Cmp 1a and 56 % of Cmp 1a and 68 % of Cmp 1a
IP1 response (% of Cmp 1a) (GPR139 [2]; [9]): 59 % of Cmp 1a and 41 % of Cmp 1a and 29 % of Cmp 1a and 43 % of Cmp 1a
IP1 response (% of Cmp 1a) (GPR139 [2]; [10]): 26 % of Cmp 1a and 25 % of Cmp 1a and 8 % of Cmp 1a and 18 % of Cmp 1a
IP1 response (% of Cmp 1a) (GPR139 [2]; [11]): 22 % of Cmp 1a and 7 % of Cmp 1a and 0.699 % of Cmp 1a and 13 % of Cmp 1a
IP1 response (% of Cmp 1a) (GPR139 [2]; [12]): 12 % of Cmp 1a and -12 % of Cmp 1a and -8.56 % of Cmp 1a and 4.3 % of Cmp 1a

Emax (GPR139 [2]; Supplementary Table 4, read-out: Emax (%), IP1 accumulation): 157 ± 16%
EC50 (GPR139 [2]; Supplementary Table 4, read-out: pEC50, IP1 accumulation (converted)): 200 nM
Structure (SMILES): CC(NC(=O)CNC(=O)c1cccc(Cl)c1)c1ccccc1 (centres unmarked) [JNJ-63533054, reference compound]
IP1 response (% of Cmp 1a) (GPR139 [2]; log [Compound] M -4.5, replicate experiments): 132 % of Cmp 1a and 117 % of Cmp 1a and 179 % of Cmp 1a and 200 % of Cmp 1a
IP1 response (% of Cmp 1a) (GPR139 [2]; log [Compound] M -5.0, replicate experiments): 149 % of Cmp 1a and 120 % of Cmp 1a and 161 % of Cmp 1a and 172 % of Cmp 1a
IP1 response (% of Cmp 1a) (GPR139 [2]; log [Compound] M -5.5, replicate experiments): 112 % of Cmp 1a and 93 % of Cmp 1a and 135 % of Cmp 1a and 165 % of Cmp 1a
IP1 response (% of Cmp 1a) (GPR139 [2]; log [Compound] M -6.0, replicate experiments): 129 % of Cmp 1a and 86 % of Cmp 1a and 138 % of Cmp 1a and 168 % of Cmp 1a
IP1 response (% of Cmp 1a) (GPR139 [2]; log [Compound] M -6.5, replicate experiments): 93 % of Cmp 1a (2×) and 74 % of Cmp 1a and 97 % of Cmp 1a
IP1 response (% of Cmp 1a) (GPR139 [2]; log [Compound] M -7.0, replicate experiments): 56 % of Cmp 1a and 47 % of Cmp 1a and 72 % of Cmp 1a and 84 % of Cmp 1a
IP1 response (% of Cmp 1a) (GPR139 [2]; log [Compound] M -7.5, replicate experiments): 40 % of Cmp 1a and 23 % of Cmp 1a and 36 % of Cmp 1a and 37 % of Cmp 1a
IP1 response (% of Cmp 1a) (GPR139 [2]; log [Compound] M -8.0, replicate experiments): 24 % of Cmp 1a and 9 % of Cmp 1a and 8 % of Cmp 1a and 2 % of Cmp 1a
